We go through twelve molecules from PMC8279156, “Design, synthesis, HER2 inhibition and anticancer evaluation of new substituted 1,5-dihydro-4,1-benzoxazepines” (Journal of Enzyme Inhibition and Medicinal Chemistry, 2021).

The test system of data set [1] is MCF-7 human breast cancer cell line. To be noted: previously described compounds, cited from earlier work.
The next data set has as its target isolated HER2 (Homo sapiens, UniProt P04626). Kind of data set: HER2 inhibition assay, radiometric protein kinase assay (33PanQinase Activity Assay). The class given is biochemical. The conditions noted are these: for IC50: isolated HER2, radiometric assay, 10 concentrations in singlicate; for ΔΔG Experiment (3 -> L): binding free energy difference relative to bozepinib (3), extracted from IC50 values. The procedure:
The IC50 profile of the target compounds was determined using isolated HER2. IC50 values were measured by testing 10 concentrations (1 × 10 ^−4 M to 3 × 10 ^−9 M) of each compound in singlicate. A radiometric protein kinase assay (33PanQinase® Activity Assay) was used for measuring the kinase activity of HER2. The assay was performed in 96-well FlashPlatesTM from PerkinElmer (Boston, MA) in a 50 µl reaction volume. […] The reaction cocktails were incubated at 30 °C for 60 min. The reaction was halted with 50 µl of 2% (v/v) H3PO4, plates were aspirated and washed two times with 200 µl 0.9% (w/v) NaCl. Incorporation of ^33Pi was determined with a microplate scintillation counter (Microbeta, Wallac, Waltham, MA).
Human epidermal growth factor receptor 2 (HER2) is overexpressed in about 20% of all breast cancers. […] This prompted us to evaluated compounds 7–9 for their in vitro HER2 inhibitory effect. The IC50 profile of the target compounds was determined against isolated HER2 using a radiometric assay (Table 1).

Data set [2] relates to SKBR3 human breast cancer cell line. Put plainly: Proliferation assay (sulphorhodamine-B) in SKBR3. The class given is cell-based. The conditions noted are these: SK-BR-3, 72 h of treatment, mean ± SD. As to the method:
(§1) MCF-7, HCT-116, A-375 and SKBR cells were grown at 37 °C in an atmosphere containing 5% CO2, with Dulbecco’s modified Eagle Medium (DMEM) (Gibco, Grand Island, NY) supplemented with 10% heat-inactivated foetal bovine serum (FBS) (Gibco), 2% L-glutamine, 2.7% sodium bicarbonate, 1% Hepes buffer, 40 mg/L gentamicin and 500 mg/L ampicillin.
(§2) Compounds were dissolved in DMSO and stored at −20 °C. For each experiment, the stock solutions were further diluted in medium to obtain the desired concentrations. The final solvent concentration in cell culture was ≤ 0.1% v/v of DMSO, a concentration without any effect on cell replication. Parallel cultures of MCF-7, HCT-116, A375 and SKBR-3 cells in medium with DMSO were used as controls.
(§3) The effect of the compounds on cell viability was assessed using the sulphorhodamine-B colorimetric assay. Cells suspension (1 × 10^3 cells/well) were seeded onto 24-well plates and incubated for 24 h. The cells were then treated with different concentrations of drugs in their respective culture medium and maintained with the treatment for 3 days. Three days later, wells were aspirated and fresh medium and drug were added. Then cell cultures were maintained for 3 additional days. Thereafter, a Titertek Multiscan (Flow, Irvine, CA) at 492 nm was used. The linearity of the SRB assay was evaluated with a cell number for each cell stock before each cell growth experiment. The IC50 values were calculated from semi-logarithmic dose–response curves by linear interpolation. All the experiments were plated in triplicate wells and were carried out twice.
(§4) We then investigated the effects of the target compounds on cell proliferation on the human breast cancer cell lines MCF-7 and SKBR-3, the human colon carcinoma cell line HCT-116 and the human malignant melanoma cell line A-375. The antiproliferative activity of 7–9 was evaluated using sulphorhodamine-B colorimetric assay after 72 h of treatment (Table 3).
(§5) All experiments were conducted in duplicate and gave similar results. The data are mean ± SD of three independent determinations. MCF-7: human breast cancer cell line; SKBR3: human breast cancer cell line; HCT-116: human colon cancer cell line and A-375: human melanoma cancer cell line.

The subject of data set [3] is MCF-7 human breast cancer cell line. Kind of data set: Proliferation assay (sulphorhodamine-B) in MCF-7. Format: cell-based. The conditions noted are these: MCF7, 72 h of treatment, mean ± SD. The procedure:
as §1, §2, §3, §4, §5

The test system of data set [4] is HCT-116 human colon cancer cell line. Kind of data set: Proliferation assay (sulphorhodamine-B) in HCT-116. The conditions noted are these: 72 h of treatment, mean ± SD. Format: cell-based. The procedure:
as §1, §2, §3, §4, §5

In data set [5] the test system is A-375 human melanoma cancer cell line. Kind of data set: Proliferation assay (sulphorhodamine-B) in A-375. The class given is cell-based. The conditions noted are these: 72 h of treatment, mean ± SD, read-out: IC50 A375. The procedure: as §1, §2, §3, §4, §5
Data set [6] deals with MCF-7, SKBR3, HCT-116 and A-375 cell lines. Put plainly: Proliferation assay (sulphorhodamine-B), all tumour cell lines studied. The class given is cell-based. The conditions noted are these: Homo sapiens, span over the four cell lines, read-out: IC50 against all the tumour cell lines studied. The procedure: as §1
Compounds were dissolved in DMSO and stored at −20 °C. For each experiment, the stock solutions were further diluted in medium to obtain the desired concentrations. The final solvent concentration in cell culture was ≤ 0.1% v/v of DMSO, a concentration without any effect on cell replication. […]
The effect of the compounds on cell viability was assessed using the sulphorhodamine-B colorimetric assay. […] The linearity of the SRB assay was evaluated with a cell number for each cell stock before each cell growth experiment. The IC50 values were calculated from semi-logarithmic dose–response curves by linear interpolation. […]
We then investigated the effects of the target compounds on cell proliferation on the human breast cancer cell lines MCF-7 and SKBR-3, the human colon carcinoma cell line HCT-116 and the human malignant melanoma cell line A-375. The antiproliferative activity of 7–9 was evaluated using sulphorhodamine-B colorimetric assay after 72 h of treatment (Table 3). […]

The mark [7] stands for this setting: read-out: in vitro antiproliferative activity against MCF-7.

Each structure is given as a SMILES string. Where two headings read alike, the source gives them in different places. A value given as a limit tells only on which side of the number the result lay.

Chain of isolated HER2 (P04626 23-1255): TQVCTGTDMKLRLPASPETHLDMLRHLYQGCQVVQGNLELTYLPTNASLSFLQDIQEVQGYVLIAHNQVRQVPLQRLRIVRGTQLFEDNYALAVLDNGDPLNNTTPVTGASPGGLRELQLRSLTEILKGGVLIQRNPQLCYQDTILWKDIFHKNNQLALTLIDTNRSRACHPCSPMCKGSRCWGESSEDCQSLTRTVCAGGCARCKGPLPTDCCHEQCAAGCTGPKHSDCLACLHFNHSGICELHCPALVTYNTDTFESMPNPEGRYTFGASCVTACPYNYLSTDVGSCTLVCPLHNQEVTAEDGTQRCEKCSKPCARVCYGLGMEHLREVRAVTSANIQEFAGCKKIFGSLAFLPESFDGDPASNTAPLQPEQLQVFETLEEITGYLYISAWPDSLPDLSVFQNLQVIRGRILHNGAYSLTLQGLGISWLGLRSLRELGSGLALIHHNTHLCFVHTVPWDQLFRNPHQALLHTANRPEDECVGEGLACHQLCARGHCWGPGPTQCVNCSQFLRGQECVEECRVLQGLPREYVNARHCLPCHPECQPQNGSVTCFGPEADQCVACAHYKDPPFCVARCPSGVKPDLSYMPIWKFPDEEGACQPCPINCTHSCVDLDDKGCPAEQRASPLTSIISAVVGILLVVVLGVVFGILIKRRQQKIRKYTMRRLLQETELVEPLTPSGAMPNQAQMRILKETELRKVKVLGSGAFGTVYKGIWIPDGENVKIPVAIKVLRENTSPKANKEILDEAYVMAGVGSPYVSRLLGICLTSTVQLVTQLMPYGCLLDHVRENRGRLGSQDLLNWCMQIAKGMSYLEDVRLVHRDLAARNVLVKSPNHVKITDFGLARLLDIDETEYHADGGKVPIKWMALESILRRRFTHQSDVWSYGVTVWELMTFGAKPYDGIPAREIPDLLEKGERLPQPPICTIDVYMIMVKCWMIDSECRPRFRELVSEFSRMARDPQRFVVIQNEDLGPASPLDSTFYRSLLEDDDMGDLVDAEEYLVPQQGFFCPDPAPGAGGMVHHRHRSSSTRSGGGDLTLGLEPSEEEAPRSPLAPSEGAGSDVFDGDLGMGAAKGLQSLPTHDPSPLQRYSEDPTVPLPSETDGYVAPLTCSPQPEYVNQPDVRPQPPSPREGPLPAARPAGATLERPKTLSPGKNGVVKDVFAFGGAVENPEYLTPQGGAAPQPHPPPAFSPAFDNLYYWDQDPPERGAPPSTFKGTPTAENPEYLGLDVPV

With `O=[N+]([O-])c1ccccc1S(=O)(=O)N1CC(n2cnc3ncnc(Sc4ccccc4)c32)OCc2ccccc21` (stereo not shown) [Compound 2], the IC50 in data set [1] (setting [7]) is 2.59 µM.

With `O=[N+]([O-])c1ccc(S(=O)(=O)N2CC(n3cnc4c(Oc5ccccc5)nc(Cl)nc43)OCc3ccccc32)cc1` (stereo not shown) [Compound 9b, 2-Chloro-6-phenoxy-9-[1-(p-nitrobenzenesulfonyl)-1,2,3,5-tetrahydro-4,1-benzoxazepine-3-yl]-9H-purine], the melting point (in general, the temperature of the solid-liquid transition) lay within 210 to 212 °C. This molecule registered an IC50 at isolated HER2 of 13.3 µM. Besides, the IC50 in data set [2] was more than 100 µM. This molecule displayed an IC50 in data set [3] of 22.4 ± 0.03 µM. The same molecule displayed an IC50 in data set [4] of more than 100 µM. For the same molecule, in data set [5], the IC50 is more than 100 µM.

The molecule `O=[N+]([O-])c1ccc(S(=O)(=O)N2CC(n3cnc4c(Nc5ccccc5)nc(Cl)nc43)OCc3ccccc32)cc1` (stereo not shown) [Compound 9d, 2-Chloro-6-anilino-9-[1-(p-nitrobenzenesulfonyl)-1,2,3,5-tetrahydro-4,1-benzoxazepine-3-yl]-9H-purine] gave a melting point of 182 to 183 °C. In addition, at isolated HER2, the “ΔΔG Experiment (3 -> L)” value amounted to 0.41 kcal/mol and the IC50 stood at 55.5 µM. The molecule further gave an IC50 in data set [2] of more than 100 µM. In addition, the IC50 in data set [3] was 13.8 ± 0.02 µM. In addition, in data set [4], the IC50 was more than 100 µM. Besides, in data set [5], the IC50 is more than 100 µM.

As to `CN(C)c1nc(Cl)nc2c1ncn2C1CN(S(=O)(=O)c2ccc([N+](=O)[O-])cc2)c2ccccc2CO1` (stereo not shown) [Compound 9c, 2-Chloro-6-dimethylamino-9-[1-(p-nitrobenzenesulfonyl)-1,2,3,5-tetrahydro-4,1-benzoxazepine-3-yl]-9H-purine], the melting point was in the range of 203 to 205 °C. Besides, on isolated HER2, the “ΔΔG Experiment (3 -> L)” value was -0.44 kcal/mol and the IC50 is 14.4 µM. For the same molecule, the IC50 in data set [2] came out at 41.7 ± 0.79 µM. In data set [3], this molecule returned an IC50 of 20.7 ± 0.02 µM. Moreover, the IC50 in data set [4] turned out to be 87 ± 0.19 µM. Besides, the IC50 in data set [5] is more than 100 µM.

Consider `O=[N+]([O-])c1ccccc1S(=O)(=O)N1CC(n2cnc3c(Oc4ccccc4)nc(Cl)nc32)OCc2ccccc21` (stereo not shown) [Compound 9f, 2-Chloro-6-phenoxy-9-[1-(o-nitrobenzenesulfonyl)-1,2,3,5-tetrahydro-4,1-benzoxazepine-3-yl]-9H-purine], for which the melting point lay in the range of 142 to 144 °C. This molecule also displayed an IC50 on isolated HER2 of 24.6 µM. In data set [2], this molecule returned an IC50 of more than 100 µM. For the same molecule, the IC50 in data set [3] was found to be 18 ± 0.02 µM. In data set [4], this molecule yielded an IC50 of more than 100 µM. In data set [5], the IC50 is more than 100 µM.

`O=[N+]([O-])c1ccccc1S(=O)(=O)N1CC(n2cnc3c(Nc4ccccc4)nc(Cl)nc32)OCc2ccccc21` (stereo not shown) [Compound 9g, 2-Chloro-6-anilino-9-[1-(o-nitrobenzenesulfonyl)-1,2,3,5-tetrahydro-4,1-benzoxazepine-3-yl]-9H-purine] had a melting point of 152 to 157 °C. Besides, the IC50 at isolated HER2 was more than 100 µM. The same molecule displayed an IC50 in data set [2] of more than 100 µM. This molecule returned an IC50 in data set [3] of 22.5 ± 0.02 µM. The molecule further showed an IC50 in data set [4] of more than 100 µM. Moreover, the IC50 in data set [5] is more than 100 µM.

Consider `O=[N+]([O-])c1ccccc1S(=O)(=O)N1CC(n2cnc3c(Cl)nc(Cl)nc32)OCc2ccccc21` (stereo not shown) [Compound 4], for which the IC50 in data set [1] (introduction, no reference number printed at the values, read-out: IC50 against the MCF-7 cell line) is 0.383 µM.

In turn, `O=[N+]([O-])c1ccc(S(=O)(=O)N2CC(n3cnc4c(Sc5ccccc5)nc(Cl)nc43)OCc3ccccc32)cc1` (stereo not shown) [Compound 9a, 2-Chloro-6-phenylthio-9-[1-(p-nitrobenzenesulfonyl)-1,2,3,5-tetrahydro-4,1-benzoxazepine-3-yl]-9H-purine] showed a melting point of 183 to 185 °C. Also, at isolated HER2, the “ΔΔG Experiment (3 -> L)” value is -0.8 kcal/mol and the IC50 was determined as 7.31 µM. The IC50 in data set [2] came out at 71.69 ± 0.5 µM. In addition, in data set [3], the IC50 turned out to be 26.46 ± 0.03 µM. The molecule also yielded an IC50 in data set [4] of 19.62 ± 0.01 µM. The IC50 in data set [5] was determined as 13.3 ± 0.07 µM.

`Cc1ccc(S(=O)(=O)N2CC(n3cnc4c(Br)ncnc43)OCc3ccccc32)cc1` (stereo not shown) [Compound 7b, 6-Bromo-9-[1-(p-methylbenzenesulfonyl)-1,2,3,5-tetrahydro-4,1-benzoxazepine-3-yl]-9H-purine] had a melting point of 169 to 171 °C. The IC50 in data set [6] was 2.3 to 9.57 µM. On isolated HER2, the “ΔΔG Experiment (3 -> L)” value is more than 0.76 kcal/mol and the IC50 is more than 100 µM. In addition, the IC50 in data set [2] turned out to be 2.3 ± 0.04 µM. Besides, the IC50 in data set [3] is 9.57 ± 0.03 µM. The molecule further showed an IC50 in data set [4] of 3.1 ± 0.01 µM. The IC50 in data set [5] worked out at 3.08 ± 0.01 µM.

For `Cc1ccc(S(=O)(=O)N2CC(n3cnc4c(Cl)ncnc43)OCc3ccccc32)cc1` (stereo not shown) [Compound 7a, 6-Chloro-9-[1-(p-methylbenzenesulfonyl)-1,2,3,5-tetrahydro-4,1-benzoxazepine-3-yl]-9H-purine], the melting point was 178 to 180 °C. In addition, the IC50 in data set [6] is not above 1 µM. Further, at isolated HER2, the “ΔΔG Experiment (3 -> L)” value is reported as more than 0.76 kcal/mol and the IC50 is more than 100 µM. The same molecule returned an IC50 in data set [2] of 1.08 ± 0.02 µM. In data set [3], this molecule displayed an IC50 of 0.12 µM. Also, in data set [4], the IC50 is 1.03 ± 0.05 µM. Also, the IC50 in data set [5] stood at 0.78 ± 0.03 µM.

For the molecule `O=[N+]([O-])c1ccc(S(=O)(=O)N2CC(n3cnc4ncnc(Sc5ccccc5)c43)OCc3ccccc32)cc1` (stereo not shown) [Compound 1], the IC50 in data set [1] (setting [7]) is 0.86 µM.

As for `O=[N+]([O-])c1ccccc1S(=O)(=O)N1CC(n2cnc3c(Sc4ccccc4)nc(Cl)nc32)OCc2ccccc21` (stereo not shown) [Compound 9e, 2-Chloro-6-phenylthio-9-[1-(o-nitrobenzenesulfonyl)-1,2,3,5-tetrahydro-4,1-benzoxazepine-3-yl]-9H-purine], the melting point fell in the range of 212 to 214 °C. The IC50 at isolated HER2 turned out to be 11.5 µM. The molecule further returned an IC50 in data set [2] of more than 100 µM. In data set [3], the IC50 amounted to 20.5 ± 0.06 µM. The same molecule showed an IC50 in data set [4] of more than 100 µM. Further, the IC50 in data set [5] is 92.2 ± 8.9 µM.
